The values that follow come from publication PMC5814047, “Peptidic inhibitors of insulin-degrading enzyme with potential for dermatological applications discovered via phage display” (PLoS ONE, 2018).

Structures are written as SMILES. Where “and” joins values, the source holds several entries; their conditions need not be identical. Equal entries are not always repeated. Entries after “also recorded” stand apart in the source; their conditions may differ. Bridge positions count the residues as written; N and C are the ends. Peptide text beside a SMILES is read from it.

Assay [1] concerns alpha-1 type I collagen in primary murine skin fibroblasts. The assay can be described thus: Western blotting of cell-associated alpha-1 type I collagen. The class given is cell-based. The note with it: for COL1A1 Adj. Band Vol. normalized to control on each gel: control = Day 0 COL1A1+DMSO sample; for Normalized COL1A1/GAPDH ratio, Mean: mean of 4 replicates; for COL1A1/GAPDH ratio normalized to Day 0, DMSO only control, Mean: mean of 4 replicates (Figure 4E). As for the experimental part: (§1) Insulin promotes wound healing and overall skin health by affecting a number of processes, including cell proliferation, cell migration, and the production and secretion of ECM components, particularly type I collagen. We therefore assessed the ability of P12-3A to influence these processes in cultured skin fibroblasts and keratinocytes. To that end, primary mouse skin fibroblasts were grown for 4 d in multiple concentrations of insulin in the presence or absence of P12-3A, and insulin concentration over time was monitored by ELISA. […] Finally, the effects of P12-3A on collagen production in were assessed at both the transcriptional and the posttranslational level in confluent monolayers of fibroblasts. After 4 d of treatment with P12-3A (100 μM), mRNA levels for the major form of collagen, alpha-1 type I collagen (COL1A1), were quantified by RT-PCR and found to be increased to ~2.6 times the levels of untreated cells (Fig 4C). To assess overall levels of collagen production and secretion, we quantified levels of hydroxyproline, a modified amino acid present almost exclusively in collagen proteins. […] Western blotting also confirmed that mature, cell-associated collagen levels were increased in the presence of P12-3A (Fig 4E).
(§2) Fig 4 Effects of P12-3A on cultured skin cells. A, Insulin concentrations as a function of time in logarithmically growing primary murine skin fibroblasts in the absence or presence of P12-3A (100 μM). […] Data are mean ± SEM of 4 independent replications. *P<0.05, **P<0.01. B, Proliferation of cells in the absence or presence of P12-3A (100 μM). Data are mean ± SEM of 6 independent replications. […] C,D,E, P12-3A (100 μM) potentiates insulin-induced collagen production in skin fibroblasts. Collagen production was assessed by COL1A1 mRNA levels (C), levels of hydroxyproline secreted into the medium (D), and cell-associated mature alpha-1 type I collagen levels detected by Western blotting (E). Data are mean ± SD of 4 independent replications. *P<0.05, **P<0.01. […] Migration of HaCaT cells 48 h after induction of a scratch wound in the presence of the indicated quantities of insulin and/or P12-3A (100 μM). Data are mean ± SEM of 6 independent replications. *P<0.05, **P<0.01.
Protein was collected using the M-Per Mammalian Extraction Reagent and the concentration was quantified using the Pierce™BCA Protein Assay Kit according to manufacturer’s recommendations (Thermo Fisher Scientific, Waltham, MA, USA). Protein (30 μg/well) was separated SDS-PAGE under reducing conditions using Novex™ 10% polyacrylamide tris-glycine mini gels and transferred to nitrocellulose membranes as described. Briefly, membranes were blocked in 5% non-fat milk in tris-buffered saline supplemented with 0.2% Tween-20 (TBST), cut into segments and incubated for 1 h at room temperature with anti-alpha-1 type I collagen (1:5000) and anti-GAPDH (1:10,000) antibodies, washed extensively in TBST, then probed with anti-rabbit (1:20,000) or anti-goat (1:50,000) secondary antibodies, respectively, and detected by enhanced chemoluminescence using SuperSignal West Pico Substrate. Protein expression, normalized to GAPDH levels, was quantified using the band analysis tools of ImageLab software, version 4.1 (Bio-Rad Laboratories, Inc., Hercules, CA, USA).
On the technique in general: A western blot detects proteins with antibodies after separation by electrophoresis.

The test system of assay [2] is primary murine skin fibroblasts. In words: Cell proliferation (CellTiter 96 AQueous). The note with it: for Cell count, Mean / Cell count: P12-3A 100 uM, 100nM insulin added, cells per well; for Cell count, Mean: N 6; for Cell count: individual replicates. In kind it is cell-based. As for the experimental part: as §1, §2
Primary murine skin fibroblasts cells (1 x 10^5/well) were plated in 96-well plates, using separate plates for each timepoint and endpoint. Cell proliferation was quantified using the CellTiter 96® AQueous Non-Radioactive Cell Proliferation Assay (Promega Corp., Madison, WI, USA) according to manufacturer’s recommendations.

With `CC(C)C[C@H](NC(=O)[C@H](CO)NC(=O)[C@@H](N)CCC(N)=O)C(=O)N1CCC[C@H]1C(=O)N[C@@H](Cc1c[nH]c2ccccc12)C(=O)N[C@H]1CSSC[C@@H](C(=O)N[C@H](C(=O)N[C@H](C(N)=O)[C@@H](C)O)C(C)C)NC(=O)[C@H](Cc2c[nH]cn2)NC(=O)[C@@H]2CCCN2C(=O)[C@H](Cc2ccc(O)cc2)NC1=O` [P12-3A] (H-QSLPWCYPHCVT-NH2; disulfide 6-10 (inferred)), the “COL1A1/GAPDH ratio normalized to Day 0, DMSO only control” value in assay [1] (Day 0, individual replicates) was 102.562 and 78.683 and 108.954 and 116.015. In addition, the “Normalized COL1A1/GAPDH ratio from same sample” value in assay [1] (Day 0, individual replicates) was 1.131 (2×) and 0.868 (2×) and 1.202 (2×) and 1.28 and 1.280; in assay [1] (Day 4, individual replicates) it was 4.269 (2×) and 4.793 (2×) and 3.93 and 3.135 (2×) and 3.930. Moreover, the “COL1A1 Adj. Band Vol. normalized to control on each gel” value in assay [1] (Day 0, individual replicates) is 1.022 and 0.7932 and 0.9786 and 1.091; in assay [1] (Day 4, individual replicates), 3.82 and 4.41 and 3.218 and 2.717. For the same compound, the “Normalized COL1A1/GAPDH ratio, Mean” value in assay [1] (Day 0) is on record as 1.120; in assay [1] (Day 4) it was 4.032. The “COL1A1/GAPDH ratio normalized to Day 0, DMSO only control, Mean” value in assay [1] (Day 0) was determined as 102; in assay [1] (Day 4) it was 345. Further, in assay [1] (in the presence of P12-3A (100 μM)), the “mature, cell-associated collagen levels” value is “increased”. Moreover, the “cell proliferation relative to control cells” value in assay [2] (100 μM P12-3A, 10 nM insulin) is recorded as “modestly increased; also recorded: No significant differences were observed”. The “Cell count, Mean” value was 0.15 *100,000 in assay [2] (t 0 d); 0.28 *100,000 in assay [2] (t 1 d); 0.63 *100,000 in assay [2] (t 2 d); 1.33 *100,000 in assay [2] (t 3 d); 2.46 *100,000 in assay [2] (t 4 d). For the same compound, the Cell count is 0.1682 *100,000 and 0.1108 *100,000 and 0.1565 *100,000 and 0.1271 *100,000 and 0.1836 *100,000 and 0.1526 *100,000 in assay [2] (t 0 d); 0.0908 *100,000 and 0.3439 *100,000 and 0.3368 *100,000 and 0.2676 *100,000 and 0.3256 *100,000 and 0.3423 *100,000 in assay [2] (t 1 d); 0.4380 *100,000 and 0.6462 *100,000 and 0.8125 *100,000 and 0.5756 *100,000 and 0.7135 *100,000 and 0.6125 *100,000 in assay [2] (t 2 d); 1.4714 *100,000 and 1.6270 *100,000 and 1.4135 *100,000 and 1.4988 *100,000 and 1.1573 *100,000 and 0.8293 *100,000 in assay [2] (t 3 d); 3.2440 *100,000 and 1.8308 *100,000 and 1.5133 *100,000 and 1.9615 *100,000 and 2.9117 *100,000 and 3.3184 *100,000 in assay [2] (t 4 d).
